Results reported in the METLIN SMRT retention time set (Domingo-Almenara et al. 2019).

Experiment: gradient 5% acetonitrile 3 min, to 50% in 2 min, to 85% in 15 min, held 3 min, 100 µL/min
Details: column: Zorbax Extend-C18 2.1 x 50 mm; eluents: water / acetonitrile, 0.1% formic acid
How it was run: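 Pure standards were analyzed in mixtures of ~100 molecules using HPLC coupled to a quadrupole time-of-flight mass spectrometer, in both positive and negative ionization mode. Separation used a Zorbax Extend-C18 column (2.1 × 50 mm, 1.8 μm) at 100 μL/min, with water and acetonitrile each containing 0.1% formic acid. Dead and dwell volumes were 40 μL and 900 μL, and data were collected over 3 months. Retention time was read from computationally picked adduct peaks, each inspected manually.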

With `O=C(NCc1cc(F)cc(F)c1)C1CCCN(c2nccnc2Sc2ccccc2)C1` (centres undefined) the RP-LC retention time was 1030 s.
`CCCNC(=O)CCc1nc2ccccc2n(CC(=O)NCc2ccc(F)cc2)c1=O` showed an RP-LC retention time of 750 s.
`CCOc1ccc(NC(=O)c2[nH]c(C)c(S(=O)(=O)N3CCCCC3)c2C)cc1` gave an RP-LC retention time of 979 s.
Compound `O=c1c2cc(-c3ccc(F)cc3)nn2cnn1Cc1nc(-c2ccccc2Br)no1` has an RP-LC retention time of 1140 s.
`O=C(CSc1nc2ccccc2s1)NCCn1nc(-c2ccco2)ccc1=O` gave an RP-LC retention time of 687 s.
`O=C(NCCCN1CCN(Cc2ccccc2)CC1)c1sc2ncccc2c1-n1cccc1` gave an RP-LC retention time of 646 s.
`COC(=O)C1=CN(C2CC2)c2cc(N3CCN(c4ccccc4OC)CC3)c(F)cc2S1(=O)=O` showed an RP-LC retention time of 904 s.
`O=C(Nc1cccc(Cl)c1)C1CCN(S(=O)(=O)c2cc(-c3noc(C4CC4)n3)cs2)CC1` gave an RP-LC retention time of 1100 s.
Work on `O=C(NC1(c2nc(-c3cccnc3)no2)CCCCC1)c1ccc[nH]c1=O` yielded an RP-LC retention time of 667 s.
Compound `CC(C)n1cnc2cc(CNC(=O)c3ccco3)ccc21` has an RP-LC retention time of 568 s.
For `CCOC(=O)c1[nH]c(C)c(C(=O)C(C)N(C(=O)c2ccc(F)cc2)C2CC2)c1C` (centres undefined), the RP-LC retention time was 890 s.
`CCn1cc(S(=O)(=O)N2C[C@@H](COC)[C@H](C(=O)NC)C2)cn1` showed an RP-LC retention time of 603 s.
Compound `COc1cc(Cl)c(NC(=O)C2CCCN(c3nc4ccccc4nc3OC)C2)c(OC)c1` (centres undefined) has an RP-LC retention time of 1250 s.
In the case of `CCN1C(=O)COc2ccc(-c3nc(NC(=O)c4ccccc4)sc3C)cc21`, the RP-LC retention time is reported as 1030 s.
`O=S(=O)(c1ccccc1)N1[C@H]2CC[C@@H]1c1cncnc1C2` gave an RP-LC retention time of 678 s.
In the case of `CNC(=O)C1CCCN(c2nc3ncn(CC(=O)Nc4ccccc4Cl)c(=O)c3s2)C1` (centres undefined), the RP-LC retention time is reported as 654 s.
Compound `COc1ccc(-c2ncccc2CNS(=O)(=O)c2ccc(Br)cc2)cc1` has an RP-LC retention time of 733 s.
With `Cc1nc(CCNC(=O)C2CCN(S(=O)(=O)c3ccc(Cl)cc3)CC2)cs1` the RP-LC retention time was 755 s.
Compound `COc1ccc(NC(=O)N2CCN(c3nc4ccccc4n3C)CC2)cc1OC` has an RP-LC retention time of 610 s.
With `CC(C)CNS(=O)(=O)c1ccc(-c2nnc(C3CC3)o2)o1` the RP-LC retention time was 809 s.
With `CCOc1ccccc1NC(=O)C1CCN(S(=O)(=O)c2ccc3c(c2)NC(=O)C(C)O3)CC1` (centres undefined) the RP-LC retention time was 897 s.
Compound `Fc1ccc(-c2csc(Cc3nc(-c4cccc(Cl)c4)no3)n2)cc1` has an RP-LC retention time of 1310 s.
For `COc1ccccc1-c1nc(Cc2noc(-c3ccccc3F)n2)c(C)o1`, the RP-LC retention time was 1020 s.
For `O=C(NCc1ccc(F)cc1F)c1csc(C(=O)N2CCCC2)n1`, the RP-LC retention time was 795 s.
For `COc1cccc(N2CCN(C(=O)C3CCCN(c4nc5ncccc5n5cccc45)C3)CC2)c1` (centres undefined), the RP-LC retention time was 696 s.
Compound `Cc1ccc(N2CC(c3nc(-c4ccncc4)no3)CC2=O)cc1Cl` (centres undefined) has an RP-LC retention time of 845 s.
Work on `Cn1ncc2c3ccccc3n(CC(=O)NCCN3CCCCC3)c2c1=O` yielded an RP-LC retention time of 595 s.
For `Cc1ccc(F)cc1S(=O)(=O)N1CCc2c(c(-c3nnc(-c4ccccc4)o3)nn2C)C1`, the RP-LC retention time was 846 s.
For `O=C(Nc1ccc2c(c1)OCO2)C1CCN(c2cc(N3CCSCC3)ncn2)CC1`, the RP-LC retention time was 676 s.
With `Cc1nc(OCC(=O)Nc2cc(Cl)ccc2Cl)c2ccccc2n1` the RP-LC retention time was 836 s.
`CC(=O)N1c2ccccc2CC1c1nc(C(C)C)no1` (centres undefined) showed an RP-LC retention time of 841 s.
For `c1ccc(N2CCN(Cc3nc(-c4ccc(N5CCCCCC5)nc4)no3)CC2)nc1`, the RP-LC retention time was 593 s.
`CCc1ccc(-c2noc(Cn3c(=O)n(-c4cccc(C)c4)c(=O)c4sccc43)n2)cc1` showed an RP-LC retention time of 1150 s.
In the case of `C=CCn1ccc2c(OCC(=O)Nc3ccc4c(c3)OCO4)cccc2c1=O`, the RP-LC retention time is reported as 805 s.
Work on `Cc1ccc(N2CC(c3nc(-c4cccnc4)no3)CC2=O)cc1Cl` (centres undefined) yielded an RP-LC retention time of 862 s.
`CCCn1nc(CNC(=O)c2cccs2)c2ccccc21` showed an RP-LC retention time of 785 s.
`O=C(NN1CCCCC1)NN1CCCCC1` showed an RP-LC retention time of 626 s.
For `COc1ccc(NC(=O)Cn2nc(C(=O)N3CCCCC3)c3ccccc32)cc1OC`, the RP-LC retention time was 756 s.
For `Cc1nc(-c2csc(S(=O)(=O)N3CCC(C(=O)Nc4ccccc4)CC3)c2)no1`, the RP-LC retention time was 878 s.
Compound `COc1ccc(NC(=O)C2CCCN(c3nccnc3Sc3ccccc3)C2)cc1F` (centres undefined) has an RP-LC retention time of 1050 s.
`Cc1ccc(Nc2c(-c3ccccc3O)nc3ccccn23)cc1` showed an RP-LC retention time of 739 s.
With `CCc1nn2c(CNS(=O)(=O)c3cccc(Cl)c3)c(-c3ccccc3)nc2s1` the RP-LC retention time was 971 s.
In the case of `COc1ccc(CNS(=O)(=O)c2cn(C(C)C)c3ncccc23)cc1`, the RP-LC retention time is reported as 841 s.
In the case of `Cc1oc(-c2ccc(C(=O)N3CCCCC3)cc2)nc1CS(=O)(=O)c1ccccc1`, the RP-LC retention time is reported as 843 s.
For `CCNC(=O)N1CCCC(Cc2nncn2C(C)C)C1` (centres undefined), the RP-LC retention time was 494 s.
Work on `CCC(C)NC(=O)c1ccc2c(c1)CCCN2S(=O)(=O)CC` (centres undefined) yielded an RP-LC retention time of 781 s.
`CCn1cc(C)c(C(=O)O)c1CC(=O)N(C)c1ccccc1F` gave an RP-LC retention time of 770 s.
Compound `Cn1nc2n(c1=O)CCN(C(=O)Cc1cccs1)CC2` has an RP-LC retention time of 610 s.
With `Cc1ccc(CCNC(=O)c2ccc3c(c2)NC(=O)C2CCCCN32)cc1` (centres undefined) the RP-LC retention time was 862 s.
Compound `CC(C)NC(=O)c1cc(-c2ccc(F)cc2)cn1C` has an RP-LC retention time of 926 s.
Work on `CCC(=O)N1CCc2c(C(=O)NC3CC3)cccc21` yielded an RP-LC retention time of 653 s.
Work on `O=C(Cc1nnc(-c2ccc3ncccc3c2)o1)Nc1ccc(F)c(F)c1` yielded an RP-LC retention time of 741 s.
With `CC(C)n1cnc2ccc(-c3noc(-c4ccc(F)cc4)n3)cc21` the RP-LC retention time was 742 s.
In the case of `CCCn1c(=O)c(C)nc2cc(-c3noc(-c4cccc(OC)c4OC)n3)ccc21`, the RP-LC retention time is reported as 1140 s.
Compound `O=C(CCc1nc(CSc2nnc(-c3ccccc3)o2)no1)Nc1ccc(Cl)cc1` has an RP-LC retention time of 949 s.
With `CCc1noc(NC(C)=O)c1-c1ccc(OC)c(S(=O)(=O)N2CCN(c3ccccc3)CC2)c1` the RP-LC retention time was 895 s.
`CN(C)S(=O)(=O)c1ccc2c(c1)N(CC(=O)NCCc1ccccc1)C(=O)C1CCCCN21` (centres undefined) gave an RP-LC retention time of 918 s.
`COc1ccc(S(=O)(=O)N2CCCC(C(=O)Nc3cccc(SC)c3)C2)cc1C` (centres undefined) showed an RP-LC retention time of 1030 s.
`CCN(CCNC(=O)c1cc(=O)n(C)c2c1c(=O)n(C)c(=O)n2C)Cc1ccccc1` showed an RP-LC retention time of 646 s.
`CCn1cnc(S(=O)(=O)N2CCC(C(=O)N3CCN(c4ccccc4F)CC3)CC2)c1` gave an RP-LC retention time of 762 s.
For `COc1cccc(CNC(=O)NCCC2CCN(S(=O)(=O)c3ccc(C)cc3)CC2)c1`, the RP-LC retention time was 873 s.
Compound `c1ccc2c(c1)OCC(c1nc(-c3ccc(-n4cccn4)nc3)no1)O2` (centres undefined) has an RP-LC retention time of 1090 s.
For `CCC(C)NC(=O)c1nnc(-c2ccc(S(=O)(=O)N3CCOCC3)cc2)o1` (centres undefined), the RP-LC retention time was 787 s.
Compound `CSc1cccc(NC(=O)Nc2nc(-c3ccccc3)cs2)c1` has an RP-LC retention time of 1090 s.
For `Cn1c(C(=O)N2CCCC(C(=O)NCCc3ccc(S(N)(=O)=O)cc3)C2)cc2sccc21` (centres undefined), the RP-LC retention time was 693 s.
In the case of `CC(C)CNC(=O)C1Cn2cccc2C(=O)N1CC(C)C` (centres undefined), the RP-LC retention time is reported as 750 s.
`CN(C)c1ccc(CNC(=O)CCCN2C(=O)CCn3nc(-c4cn(C)c5ccccc45)cc32)cc1` showed an RP-LC retention time of 602 s.
In the case of `CCOC(=O)c1ccc(NC(=O)Cn2nc3c(N4CCSCC4)nccn3c2=O)cc1`, the RP-LC retention time is reported as 828 s.
`O=C(c1cc(F)ccc1F)N1CCC2(CC1)NC(=O)N(Cc1ccc(Cl)cc1)C2=O` showed an RP-LC retention time of 890 s.
`O=C(CCC1CCN(S(=O)(=O)c2cccc(F)c2)CC1)NC1CC1` showed an RP-LC retention time of 781 s.
With `Cc1ccc2c(c1)cc(S(=O)(=O)c1ccccc1)c(=O)n2CC(=O)NC(C)C` the RP-LC retention time was 808 s.
Work on `CCOC(=O)c1ccc(N2C=C(C#N)S(=O)(=O)c3ccc(F)cc32)cc1` yielded an RP-LC retention time of 972 s.
With `CCCCOc1ccc(NC(=O)c2oc3ccc(C)cc3c2C)c2cccnc12` the RP-LC retention time was 923 s.
For `COc1cc(NC(=O)N2CCC(n3cnc4cccnc43)CC2)cc(OC)c1`, the RP-LC retention time was 638 s.
`CCC(=O)Oc1ccc(N(C)C2=NS(=O)(=O)c3ccccc32)cc1` gave an RP-LC retention time of 859 s.
With `Cc1ccc(-c2noc(CSc3nc4cc5c(cc4c(=O)n3Cc3ccccc3)OCO5)n2)cc1` the RP-LC retention time was 1300 s.
Compound `O=C(c1cc(F)cc(F)c1)N1CCN(c2cc(-c3ccc(F)cc3)[nH]n2)CC1` has an RP-LC retention time of 837 s.
Work on `CCCc1ccc(-c2csc(NC(=O)c3ccc(C)o3)n2)cc1` yielded an RP-LC retention time of 1210 s.
Compound `CC(=O)Nc1nc(-c2ccc3c(c2)N(C)C(=O)CO3)c(C)s1` has an RP-LC retention time of 726 s.
In the case of `COc1ccc(NC(=O)CN2CCc3[nH]c4c(C)cc(F)cc4c(=O)c3C2)cc1`, the RP-LC retention time is reported as 600 s.
`Cc1ccccc1N1CC(C(=O)N(C)C)CC1=O` (centres undefined) gave an RP-LC retention time of 628 s.
With `CCN1CCN(C(=O)Cc2ccc(Nc3ncc(F)c(Nc4ccc(C(=O)Nc5ccccc5Cl)cc4)n3)cc2)CC1` the RP-LC retention time was 684 s.
`CN1C2CCC1[C@@H](COC(=O)c1ccccc1)[C@@H](O)C2` (some centres undefined) showed an RP-LC retention time of 636 s.
`O=C(COc1ccccc1)Nc1cnc(-c2cccnc2)nc1` gave an RP-LC retention time of 678 s.
In the case of `CCC1CCCCN1C(=O)CN1C(=O)CCCc2cc(S(=O)(=O)N3CCC(C)CC3)ccc21` (centres undefined), the RP-LC retention time is reported as 1040 s.
`CCN1c2cc(C(N)=O)ccc2C(=O)N2CCCCCC21` (centres undefined) showed an RP-LC retention time of 649 s.
With `CC1CCN(c2cc(-n3cnc(C(=O)NC4CCCC4)c3)ncn2)CC1` the RP-LC retention time was 968 s.
Work on `CC(C(=O)NCCN(C)Cc1ccccc1)n1c(=O)c(C(F)(F)F)nc2ccccc21` (centres undefined) yielded an RP-LC retention time of 735 s.
`O=C(NCc1ccc(N2CCOCC2)cc1)c1cn2c(n1)CCCC2` showed an RP-LC retention time of 586 s.
